Converted amounts (≈) assume the structure as drawn. Read-outs that look alike come from different tables or passages of the source.
Tests used:
[1] = molecular target: ai5γ group II intron; assay: Radioanalytic self-splicing assay of SE RNA (Ki); format: biochemical, Saccharomyces cerevisiae; conditions: 8 mM MgCl2, 100 mM KCl, pH 7.5, 30° C.
Outline: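 Internally labeled SE RNA (2 nM) self-spliced with varying inhibitor in 50 mM MOPS pH 7.5, 8 mM MgCl2, 100 mM KCl at 30° C; time points resolved on 5% denaturing PAGE. kobs from single-exponential fits, Ki from non-competitive model kobs=kmax/(1+[I]/Ki); mean±s.e.m. of 2–4 runs.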

[2] = tested on: S. cerevisiae; assay: Yeast respiration assay in S. cerevisiae (MIC in YPD / YPGE); format: cell-based, Saccharomyces cerevisiae; conditions: Saccharomyces cerevisiae, 30° C.
Method: Yeast respiration assays were conducted either in liquid YPD media (BD Bacto Yeast Extract, BD Bacto Peptone, 2% glucose) or in YPGE media (BD Bacto Yeast Extract, BD Bacto Peptone, 3% glycerol, 3% ethanol), essentially as described for the antifungal MIC assays (see below). To initiate these experiments, 100 μl of a fresh stock solution was prepared for each compound (3.2 mg/ml for Amphotericin B and 12.8 mg/ml for each test compounds) in DMSO. This concentrated stock solution was placed in the first well of 12-well row on a 96-well plate. The subsequent nine wells in this row contained 50 μl of DMSO for serial dilution. From the first well, 50 μl of the compound stock was withdrawn, transferred to the second well and mixed. This process was repeated from the second and subsequent wells, resulting in a 1:2 serial dilution of the stock into DMSO. Wells 11 and 12 contained DMSO only, to be used as no compound control and sterility control, with no inoculum added, respectively. After preparing this plate, 2.5 μl from each of the 12 wells was transferred to the wells of a separate 96-well plate, each of which contained 122.5 μl of YPD or YPGE medium, resulting in a set of serial dilutions of compound into growth media in a volume of 125 μl. Then 50 μl from each of these dilutions were transferred onto a third 96-well plate (the assay plate) and mixed with an equal volume (50 μl) of freshly prepared yeast inoculum in YPD or YPGE medium set to provide 0.5×10^3 to 2.5×10^3 colony forming units per 1 mL (wells 1-11), or YPD/YPGE alone (sterility control, well 12). The final compound concentration range of the assay was 0.25-128 μg/ml for test compounds and 0.0625-32 μg/ml for Amphotericin B. The final concentration of DMSO was 1%. Plates were incubated at 30° C. and visually analyzed for turbidity after 24 and 48 hours of incubation. The lowest compound concentration at which no growth was apparent is reported as the MIC (Table 1). All experiments were performed in triplicate.

[3] = tested on: ai5γ group II intron (D135 ribozyme); assay: Fluorescent D135 ribozyme cleavage assay (IC50); format: biochemical, Saccharomyces cerevisiae; conditions: for IC50: D135 ribozyme cleavage of substrate 17/2 DL, 100 mM MgCl2, 500 mM KCl, 37° C., 10 minutes; for In vitro inhibitory activity, SAR statement (in words): relative to parent scaffold
Outline: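 D135 ribozyme (20 nM) with double-labeled substrate 17/2 DL (20 nM) in 50 mM MOPS pH 7.0, 100 mM MgCl2, 0.5 M KCl; 19 inhibitor concentrations, 5 nM–1 mM, 10 min at 37 °C, EDTA quench, fluorescence read. Triplicates fit to 4-parameter logistic for IC50; mean±s.e.m.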

[4] = YPD medium, read-out: MIC in YPD (glucose)
[5] = YPGE medium, read-out: MIC in YPGE (glycerol)

Row | Structure (SMILES) | Ki [1] [µM] | MIC [2, 4] [µg/mL] | MIC [2, 5] [µg/mL] | IC50 [3] [µM] | In vitro inhibitory activity, SAR statement (in words) [3]
1 | O=C1/C(=C/c2cc(O)cc(O)c2)Oc2cc(O)cc(O)c21 [APY-014, (Z)-2-(3,5-Dihydroxybenzylidene)-4,6-dihydroxybenzofuran-3(2H)-one] | 251 ± 31 | > 128 | > 128 | 266 ± 37 | nearly complete loss of activity
2 | Cc1ccncc1-c1ccc2oc(C(=O)c3cc(O)c(O)c(O)c3)cc2c1 [APY-081, 5-{[5-(4-Methylpyridin-3-yl)-1-benzofuran-2-yl]carbonyl}benzene-1,2,3-triol] | 5.3 ± 0.2 | > 128 | 32 (≈ 88.6 µM) | 6.8 ± 1.1 | –
3 | O=C(c1cc(O)c(O)c(O)c1)c1cc2cc(-c3ccc(CO)cc3)ccc2o1 [APY-084, 5-({5-[4-(Hydroxymethyl)phenyl]-1-benzofuran-2-yl}carbonyl)benzene-1,2,3-triol] | 1.3 ± 0.4 | > 128 | 16 to 32 (≈ 42.5 to 85 µM) | 0.9 ± 0.1 | –
4 | Br.CCN(CC)Cc1ccc(-c2ccc3oc(C(=O)c4cc(O)c(O)c(O)c4)cc3c2)cc1 [APY-090, 5-[(5-{4-[(Diethylamino)methyl]phenyl}-1-benzofuran-2-yl)carbonyl]benzene-1,2,3-triol hydrobromide] | 0.37 ± 0.04 | > 128 | 64 | 2.1 ± 0.4 | –
5 | CCCCNS(=O)(=O)c1ccc(-c2ccc(-c3nc(-c4cc(O)c(O)c(O)c4)cs3)cc2)cc1 [APY-093, N-Butyl-4-{4-[4-(3,4,5-trihydroxyphenyl)-1,3-thiazol-2-yl]phenyl}benzene-1-sulfonamide] | 53 ± 5 | > 128 | > 128 | 86 ± 3 | substantial loss of activity
6 | CC(=O)c1ccc(-c2ccc3oc(C(=O)c4cc(O)c(O)c(O)c4)cc3c2)cc1 [APY-101, 1-(4-{2-[(3,4,5-Trihydroxyphenyl)carbonyl]-1-benzofuran-5-yl}phenyl)ethan-1-one] | 2.1 ± 0.2 | > 128 | 32 (≈ 82.4 µM) | 1.5 ± 0.1 | –

— patent US12421257B2, “Compositions and methods for inhibiting group II intron RNA” (YALE UNIVERSITY, priority 2018, dated 2025)
